Assays:
Rat SERT = target: T1, Rat SERT (Rattus norvegicus, UniProt P31652); assay: Rat brain SERT binding ([3H]-citalopram displacement); conditions: rat brain membranes without cerebellum, 0.6 nM [3H]-citalopram, 60 min at 25° C.; read-out: Rat SERT Ki
T1 construct: A rat brain without cerebellum (Zivic Laboratories, Inc.—Pittsburgh, Pa.) was homogenized; tissue Zivic Laboratories, Inc; host or cells: rat brain without cerebellum, membranes
Experimental: The supernatant was removed and re-centrifuged at 15,000 rpm for 30 min. […] Membranes were incubated with 0.6 nM [^3H]-Citalopram plus/minus test compounds for 60 min at 25° C. and harvested by rapid filtration over GF/C glass fiber filters (pretreated with 0.3% polyethylenimine) followed by four washes with ice-cold buffer.

human H3 receptor = target: T2, human H3 receptor (Homo sapiens, UniProt Q9Y5N1); assay: H3 receptor binding (N-[3H]-α-methylhistamine displacement); conditions: membranes of SK-N-MC cells expressing cloned human H3 receptor, 0.8 nM N-[3H]-α-methylhistamine, 60 min at 25° C.
T2 construct: expressed in transfected cells
Experimental: Briefly, cell pellets from SK-N-MC cells expressing the human H3 receptor were homogenized in 50 mM Tris-HCl/5 mM EDTA and re-centrifuged at 30,000 g for 30 min. Pellets were re-homogenized in 50 mM Tris/6 mM EDTA (pH 7.4). Membranes were incubated with 0.8 nM N-[^3H]-α-methylhistamine plus/minus test compounds for 60 min at 25° C. and harvested by rapid filtration over GF/C glass fiber filters (pretreated with 0.3% polyethylenimine) followed by four washes with ice-cold buffer. Nonspecific binding was defined in the presence of 10 μM histamine.

T1 sequence (P31652 whole entry): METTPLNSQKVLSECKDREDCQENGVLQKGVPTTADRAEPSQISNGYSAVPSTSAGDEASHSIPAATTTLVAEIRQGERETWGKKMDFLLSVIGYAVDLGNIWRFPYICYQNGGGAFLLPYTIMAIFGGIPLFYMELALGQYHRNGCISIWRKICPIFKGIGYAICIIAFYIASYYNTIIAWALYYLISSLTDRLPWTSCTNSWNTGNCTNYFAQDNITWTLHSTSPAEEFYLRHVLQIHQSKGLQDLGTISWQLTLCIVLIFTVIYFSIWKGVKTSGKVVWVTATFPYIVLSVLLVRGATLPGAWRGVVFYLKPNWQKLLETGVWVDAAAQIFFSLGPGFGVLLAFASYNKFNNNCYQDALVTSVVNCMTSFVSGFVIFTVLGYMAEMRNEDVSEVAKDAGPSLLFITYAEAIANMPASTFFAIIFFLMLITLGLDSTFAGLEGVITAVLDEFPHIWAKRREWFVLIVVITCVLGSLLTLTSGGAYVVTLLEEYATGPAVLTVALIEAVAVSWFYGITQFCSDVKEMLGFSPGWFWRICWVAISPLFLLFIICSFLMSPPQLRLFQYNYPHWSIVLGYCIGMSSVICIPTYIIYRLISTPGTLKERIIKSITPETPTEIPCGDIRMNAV
T2 sequence (Q9Y5N1 whole entry): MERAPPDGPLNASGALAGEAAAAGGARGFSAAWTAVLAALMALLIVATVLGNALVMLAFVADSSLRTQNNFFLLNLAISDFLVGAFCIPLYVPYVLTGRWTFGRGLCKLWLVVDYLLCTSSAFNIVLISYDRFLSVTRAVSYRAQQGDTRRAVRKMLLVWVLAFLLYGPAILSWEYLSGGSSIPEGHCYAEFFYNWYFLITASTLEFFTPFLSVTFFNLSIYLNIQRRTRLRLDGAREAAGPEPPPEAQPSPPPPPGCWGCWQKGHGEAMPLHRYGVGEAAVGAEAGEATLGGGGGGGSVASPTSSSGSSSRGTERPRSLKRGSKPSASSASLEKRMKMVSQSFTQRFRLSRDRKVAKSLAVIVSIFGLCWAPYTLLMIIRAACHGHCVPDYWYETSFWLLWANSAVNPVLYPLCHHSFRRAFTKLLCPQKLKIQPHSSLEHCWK

Compound	Ki (Rat SERT)	Ki (human H3 receptor)
CN1Cc2cc(OCCCN3CCC(F)CC3)ccc2C(c2ccc(Br)nc2)C1 (stereo not drawn) [Example 186, 4-(6-Bromo-pyridin-3-yl)-7-[3-(4-fluoro-piperidin-1-yl)-propoxy]-2-methyl-1,2,3,4-tetrahydro-isoquinoline]	0.01 µM	0.006 µM
COc1ccc(C2CN(C)Cc3cc(OC[C@@H]4CN(C5CC5)CCO4)ccc32)cc1 (single isomer, unassigned) [Example 260B, 7-(4-Cyclopropyl-morpholin-2S-ylmethoxy)-4-(4-methoxy-phenyl)-2-methyl-1,2,3,4-tetrahydro-isoquinoline]	0.026 µM	0.029 µM
CSc1ccc(C2CN(C)Cc3cc(OC4CCN(C5CCOCC5)CC4)ccc32)cc1 (stereo not drawn) [Example 246, 2-Methyl-4-(4-methylsulfanyl-phenyl)-7-[1-(tetrahydro-pyran-4-yl)-piperidin-4-yloxy]-1,2,3,4-tetrahydro-isoquinoline]	0.01 µM	0.003 µM
COc1cccc(C2CN(C)Cc3cc(OC4CCNCC4)ccc32)c1 (stereo not drawn) [Example 96, 4-(3-Methoxy-phenyl)-2-methyl-7-(piperidin-4-yloxy)-1,2,3,4-tetrahydro-isoquinoline]	0.014 µM	0.182 µM
COc1ccc(C2CN(C)Cc3cc(OC[C@@H]4CN(C(C)C)CCO4)ccc32)cc1 (mixture of isomers) [Example 255, 7-(4-Isopropyl-morpholin-2S-ylmethoxy)-4-(4-methoxy-phenyl)-2-methyl-1,2,3,4-tetrahydro-isoquinoline]	0.016 µM	0.002 µM
COc1ccc(C2CN(C)Cc3cc(OCCCN4CCN(CC5OCCO5)CC4)ccc32)cc1 (stereo not drawn) [Example 207, 7-[3-(4-[1,3]-Dioxolan-2-ylmethyl-piperazin-1-yl)-propoxy]-4-(4-methoxy-phenyl)-2-methyl-1,2,3,4-tetrahydro-isoquinoline]	0.015 µM	0.078 µM
CSc1ccc(C2CN(C)Cc3c2ccc(OCCCN2CCOCC2)c3C)cc1 (stereo not drawn) [Example 172, 2,8-Dimethyl-4-(4-methylsulfanyl-phenyl)-7-(3-morpholin-4-yl-propoxy)-1,2,3,4-tetrahydro-isoquinoline]	0.014 µM	0.089 µM
COc1ccc(C2CN(C)Cc3cc(OCCCN4CC(C(c5ccccc5)c5ccccc5)C4)ccc32)cc1 (stereo not drawn) [Example 137, 7-[3-(3-Benzhydryl-azetidin-1-yl)-propoxy]-4-(4-methoxy-phenyl)-2-methyl-1,2,3,4-tetrahydro-isoquinoline]	0.077 µM	5 µM
COc1ccc(C2CN(C)Cc3cc(OCCCN4CCN(c5ccc(C(F)(F)F)cc5)CC4)ccc32)cc1 (stereo not drawn) [Example 205, 4-(4-Methoxy-phenyl)-2-methyl-7-{3-[4-(4-trifluoromethyl-phenyl)-piperazin-1-yl]-propoxy}-1,2,3,4-tetrahydro-isoquinoline]	0.044 µM	2 µM
CN1Cc2cc(OCCCN3CCC(F)CC3)ccc2C(c2cc(Cl)cc(Cl)c2)C1 (stereo not drawn) [Example 56, 4-(3,5-Dichloro-phenyl)-7-[3-(4-fluoro-piperidin-1-yl)-propoxy]-2-methyl-1,2,3,4-tetrahydro-isoquinoline]	0.042 µM	0.02 µM
C[C@H]1COCCN1CCCOc1ccc2c(c1)CN(C)CC2c1ccc(N2CCOCC2)cc1 (stereo partly drawn) [Example 133, 2-Methyl-7-[3-(3S-methyl-morpholin-4-yl)-propoxy]-4-(4-morpholin-4-yl-phenyl)-1,2,3,4-tetrahydro-isoquinoline]	0.05 µM	0.002 µM
CCCN1CCC(COc2ccc3c(c2)CN(C)CC3c2ccc(OC)c(Cl)c2)CC1 (stereo not drawn) [Example 108, 4-(3-Chloro-4-methoxy-phenyl)-2-methyl-7-(1-propyl-piperidin-4-ylmethoxy)-1,2,3,4-tetrahydro-isoquinoline]	0.013 µM	0.012 µM
COc1ccc(C2CN(C)Cc3cc(OCCCN4CCN(C(=O)OC(C)(C)C)CC4)ccc32)cc1 (stereo not drawn) [Example 211, 4-{3-[4-(4-Methoxy-phenyl)-2-methyl-1,2,3,4-tetrahydro-isoquinolin-7-yloxy]-propyl}-piperazine-1-carboxylic acid tert-butyl ester]	0.027 µM	0.823 µM
CN1Cc2cc(OCCCN3CCC(F)CC3)ccc2C(c2ccc(Sc3ccccc3)nc2)C1 (stereo not drawn) [Example 191, 7-[3-(4-Fluoro-piperidin-1-yl)-propoxy]-2-methyl-4-(6-phenylsulfanyl-pyridin-3-yl)-1,2,3,4-tetrahydro-isoquinoline]	0.069 µM	0.026 µM

Now those with a lower Ki (Rat SERT), led by results:

Ki (Rat SERT)	Ki (human H3 receptor)	Compound
0.005 µM	0.172 µM	CCOC(=O)C1CCN(CCCOc2ccc3c(c2)CN(C)CC3c2ccc(OC)cc2)CC1 (stereo not drawn) [Example 33, 1-{3-[4-(4-Methoxy-phenyl)-2-methyl-1,2,3,4-tetrahydro-isoquinolin-7-yloxy]-propyl}-piperidine-4-carboxylic acid ethyl ester]
0.009 µM	0.003 µM	CN1Cc2cc(OCCCN3CCC(F)CC3)ccc2C(c2ccc(-n3ccnc3)nc2)C1 (stereo not drawn) [Example 192, 7-[3-(4-Fluoro-piperidin-1-yl)-propoxy]-4-(6-imidazol-1-yl-pyridin-3-yl)-2-methyl-1,2,3,4-tetrahydro-isoquinoline]
0.001 µM	0.074 µM	COc1ccc(C2CN(C)Cc3cc(OCCCN4C=NCCC4)ccc32)cc1 (stereo not drawn) [Example 18, 7-[3-(5,6-Dihydro-4H-pyrimidin-1-yl)-propoxy]-4-(4-methoxy-phenyl)-2-methyl-1,2,3,4-tetrahydro-isoquinoline]
0.001 µM	0.07 µM	COc1ccc(C2CN(C)Cc3cc(OCC4CCNCC4)ccc32)cc1F (stereo not drawn) [Example 81, 4-(3-Fluoro-4-methoxy-phenyl)-2-methyl-7-(piperidin-4-ylmethoxy)-1,2,3,4-tetrahydro-isoquinoline]
0.005 µM	0.183 µM	COc1ccc(C2CN(C)Cc3cc(OCC4CCNCC4)ccc32)cc1Cl (stereo not drawn) [Example 79, 4-(3-Chloro-4-methoxy-phenyl)-2-methyl-7-(piperidin-4-ylmethoxy)-1,2,3,4-tetrahydro-isoquinoline]
0.001 µM	0.002 µM	COc1ccc(C2CN(C)Cc3cc(OCCCN4CCOC(CO)C4)ccc32)cc1 (stereo not drawn) [Example 184, (4-{3-[4-(4-Methoxy-phenyl)-2-methyl-1,2,3,4-tetrahydro-isoquinolin-7-yloxy]-propyl}-morpholin-2-yl)-methanol]
0.005 µM	0.006 µM	COc1ccc(C2CN(C)Cc3cc(OCCCN4CCC(F)CC4)ccc32)cc1F (single isomer, unassigned) [Example 144, 4-(3-Fluoro-4-methoxy-phenyl)-7-[3-(4-fluoro-piperidin-1-yl)-propoxy]-2-methyl-1,2,3,4-tetrahydro-isoquinoline]
0.009 µM	0.085 µM	COc1ccc(C2CN(C)Cc3cc(OCCCNC(C4CC4)C4CC4)ccc32)cc1 (stereo not drawn) [Example 131, Dicyclopropylmethyl-{3-[4-(4-methoxy-phenyl)-2-methyl-1,2,3,4-tetrahydro-isoquinolin-7-yloxy]-propyl}-amine]
0.003 µM	0.003 µM	COc1ccc(C2CN(C)Cc3cc(OCCCN(C)C4CC4)ccc32)cc1 (stereo not drawn) [Example 234, Cyclopropyl-{3-[4-(4-methoxy-phenyl)-2-methyl-1,2,3,4-tetrahydro-isoquinolin-7-yloxy]-propyl}-methyl-amine]
0.008 µM	2 µM	COc1ccc(C2CN(C)Cc3cc(OCCCN(C)c4nc5ccccc5s4)ccc32)cc1 (stereo not drawn) [Example 19, Benzothiazol-2-yl-{3-[4-(4-methoxy-phenyl)-2-methyl-1,2,3,4-tetrahydro-isoquinolin-7-yloxy]-propyl}-methyl-amine]
0.005 µM	0.059 µM	COc1ccc(C2CN(C)Cc3cc(OCCCNC4CCOCC4)ccc32)cc1 (stereo not drawn) [Example 223, {3-[4-(4-Methoxy-phenyl)-2-methyl-1,2,3,4-tetrahydro-isoquinolin-7-yloxy]-propyl}-(tetrahydro-pyran-4-yl)-amine]
0.006 µM	3.25 µM	CSc1ccc(C2CN(C)Cc3cc(OCC4CNCCO4)ccc32)cc1 (mixture of isomers) [Example 264, 2-Methyl-4-(4-methylsulfanyl-phenyl)-7-(morpholin-2-ylmethoxy)-1,2,3,4-tetrahydro-isoquinoline]
0.004 µM	0.24 µM	CSc1ccc(C2CN(C)Cc3cc(OC4CCNCC4)ccc32)cc1 (stereo not drawn) [Example 149, 2-Methyl-4-(4-methylsulfanyl-phenyl)-7-(piperidin-4-yloxy)-1,2,3,4-tetrahydro-isoquinoline]
0.002 µM	0.03 µM	CSc1ccc(C2CN(C)Cc3cc(OCC4CN(CCF)C4)ccc32)cc1 (stereo not drawn) [Example 239, 7-[1-(2-Fluoro-ethyl)-azetidin-3-ylmethoxy]-2-methyl-4-(4-methylsulfanyl-phenyl)-1,2,3,4-tetrahydro-isoquinoline]
0.003 µM	0.043 µM	COc1ccc(C2CN(C)Cc3cc(OCCCN4CCN(CCO)CC4)ccc32)cc1 (stereo not drawn) [Example 202, 2-(4-{3-[4-(4-Methoxy-phenyl)-2-methyl-1,2,3,4-tetrahydro-isoquinolin-7-yloxy]-propyl}-piperazin-1-yl)-ethanol]
0.007 µM	0.175 µM	COc1ccc(C2CN(C)Cc3cc(OC4CCNCC4)ccc32)c(F)c1 (stereo not drawn) [Example 150, 4-(2-Fluoro-4-methoxy-phenyl)-2-methyl-7-(piperidin-4-yloxy)-1,2,3,4-tetrahydro-isoquinoline]
